Data from PubChem BioAssay (NCI).
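Interpolation was linear, between the two tested concentrations surrounding the appropriate level; five concentrations were tested over 48 hours in 96-well plates. GI50 is the concentration that inhibits growth by half. TGI denotes the concentration required for complete inhibition of growth.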

Assays:
Assay in all cases: DTP human tumour cell line panel, 48 h
[1] = tested on: U251 CNS
[2] = tested on: SW-620 colon
[3] = tested on: MDA-MB-231 breast
[4] = tested on: HCT-15 colon
[5] = tested on: SK-MEL-2 melanoma
[6] = tested on: OVCAR-5 ovarian
[7] = tested on: A498 renal
[8] = tested on: RXF 393 renal
[9] = tested on: 786-0 renal
[10] = tested on: SNB-75 CNS

Row | Structure (SMILES) | GI50 [1] | TGI [1] | GI50 [2] | TGI [2] | GI50 [3] | TGI [3] | GI50 [4] | TGI [4] | GI50 [5] | TGI [5] | GI50 [6] | TGI [6] | GI50 [7] | TGI [7] | GI50 [8] | TGI [8] | GI50 [9] | TGI [9] | TGI [10] | GI50 [10]
1 | COc1cc(CNc2nc3cc(N)cc(N)c3nc2-c2ccccc2)cc(OC)c1 | 5.08 µM | > 100 µM | 4.45 µM | > 100 µM | 2.08 µM | 6.09 µM | 19.3 µM | > 100 µM | 7.77 µM | 41 µM | 5.9 µM | 29.2 µM | 90.8 µM | > 100 µM | 6.09 µM | 58.5 µM | 12.7 µM | 44.2 µM |  | 
2 | N#C/C(=C\c1cc(OCc2ccccc2)c(OCc2ccccc2)cn1)C(N)=O |  | > 100 µM |  | > 100 µM |  |  |  | > 100 µM |  | > 100 µM |  | > 100 µM |  | > 100 µM |  | > 100 µM |  | > 100 µM | > 100 µM | 
3 | COc1ccc(C(=O)c2cc(OC)c(OC)c(OC)c2OC)cc1O | 3.61 µM | > 100 µM | 2.99 µM | > 100 µM | 5.82 µM | > 100 µM | 3.48 µM | > 100 µM | 4.28 µM | > 100 µM | 17.5 µM | > 100 µM | 6.31 µM | > 100 µM |  |  | 4.35 µM | > 100 µM | 5.77 µM | 1.69 µM
4 | Cc1nc2ccccc2nc1CC(=O)C(=O)Nc1ccc(Cl)cc1Cl |  | > 100 µM |  | > 100 µM |  |  |  | > 100 µM |  | > 100 µM |  | > 100 µM |  | > 100 µM |  | > 100 µM |  | > 100 µM | > 100 µM | 
5 | Cc1nc(N)nc(CCC(=O)Nc2cccc(C(F)(F)F)c2)c1-c1ccc(Cl)cc1 |  | > 100 µM |  | > 100 µM |  |  |  | > 100 µM |  | > 100 µM |  | > 100 µM |  | > 100 µM |  | > 100 µM |  | > 100 µM | > 100 µM | 
6 | COc1cc(C)c(CC/C(C)=C/Cc2cc(O)ccc2O)c(C)c1C |  | > 25 µM |  | > 25 µM |  |  |  | > 25 µM |  | > 25 µM |  |  |  | > 25 µM |  | > 25 µM |  | > 25 µM | > 25 µM | 
7 | CCOC(=O)c1nc(C)oc1C(F)(F)F |  | > 100 µM |  | > 100 µM |  |  |  | > 100 µM |  | > 100 µM |  | > 100 µM |  | > 100 µM |  | > 100 µM |  | > 100 µM | > 100 µM | 
8 | O=C1[C@@H]2C(c3c(Cl)cccc3Cl)=NO[C@@H]2C(=O)N1c1ccc(Cc2ccc(N3C(=O)[C@H]4C(c5c(Cl)cccc5Cl)=NO[C@H]4C3=O)cc2)cc1 |  | > 100 µM |  | > 100 µM |  |  |  | > 100 µM |  | > 100 µM |  | > 100 µM |  | > 100 µM |  | > 100 µM |  | > 100 µM | > 100 µM | 
9 | COc1ccc(CNc2cnc3ccc(N)cc3n2)cc1 |  |  |  | > 100 µM |  |  |  | > 100 µM |  | > 100 µM |  | > 100 µM |  |  |  |  |  | > 100 µM | > 100 µM | 
10 | CCc1cccc(C)c1NC(=O)CCc1nc(=S)[nH][nH]1 |  | > 100 µM |  | > 100 µM |  |  |  | > 100 µM |  | > 100 µM |  | > 100 µM |  |  |  | > 100 µM |  | > 100 µM |  | 
11 | O=C1CC(c2ccccc2)Oc2ccccc21 (stereo unspecified) |  | > 100 µM |  |  |  | 94 µM |  | > 100 µM |  | 86.7 µM |  |  |  | 94 µM |  | 94.4 µM |  | > 100 µM | > 100 µM | 
12 | COc1cc([C@@H]2c3cc4c(cc3[C@@H](NC(=O)c3ccc(C#N)cc3)C3COC(=O)[C@@H]32)OCO4)cc(OC)c1O (stereo partly specified) |  | 1.26 µM |  | 10.7 µM |  |  |  | 15.1 µM |  | 5.56 µM |  | 8.53 µM |  | 3.79 µM |  | 9.92 µM |  | 16 µM | 5.49 µM | 
13 | O=C(NCCNCCO)c1ccc2c(c1)oc1cc3ccccc3c(=O)n12 | 14.7 µM | 42.6 µM | 18.1 µM | > 50 µM | 29.8 µM | > 50 µM | 38.4 µM | > 50 µM | 12.8 µM | 44.7 µM |  |  |  |  | 14.2 µM | > 50 µM | > 50 µM | > 50 µM | 44.4 µM | 15 µM
14 | COC(=O)C1C(=O)O[C@@H](c2ccc3c(c2)OCO3)C1C(=O)OC (mixture of isomers) |  | > 100 µM |  | > 100 µM |  |  |  | > 100 µM |  |  |  | > 100 µM |  | > 100 µM |  | > 100 µM |  | > 100 µM | > 100 µM | 
15 | O=[N+]([O-])c1cccc(C2=NN(c3ccccc3)C3c4cc(Br)ccc4OCC23)c1 (stereo unspecified) |  | > 100 µM |  | > 100 µM |  |  |  |  |  | > 100 µM |  | > 100 µM |  | > 100 µM |  | > 100 µM |  | > 100 µM | > 100 µM | 
16 | CCOC(=O)C1C(c2ccc(Cl)cc2Cl)NC(c2ccc(C)cc2)C(C(=O)OC)S1(=O)=O (stereo unspecified) |  | > 100 µM |  | > 100 µM |  |  |  | > 100 µM |  | > 100 µM |  | > 100 µM |  | > 100 µM |  | > 100 µM |  | > 100 µM | > 100 µM | 
17 | Nc1ncnc2c1N=C(c1ccc3c(c1)OCO3)CC(c1ccc(Cl)cc1)N2 (stereo unspecified) | 6.19 µM | 25.8 µM | 4.91 µM | > 100 µM | 27 µM | > 100 µM | 3.05 µM | > 100 µM |  |  | 18.3 µM | 90.7 µM | 5.93 µM | > 100 µM | 2.51 µM | 13.5 µM | 21.7 µM | > 100 µM | 38.3 µM | 5.22 µM
18 | COC(=O)/C=C(/C(=O)OC)C1(C)c2cc(C(=O)OC)c(C(=O)OC)c(N)c2C(=N)N1c1ccccc1 (stereo unspecified) |  | 48.9 µM |  |  |  |  |  | > 100 µM |  | 81.4 µM |  | > 100 µM |  | 88.9 µM |  | 36.1 µM |  | 74.4 µM | 81 µM | 
19 | C[C@]12Cc3cn[nH]c3C(=O)C1CC[C@@H]1C2CC[C@@]2(C)C1CC[C@@H]2O (stereo partly specified) |  | > 100 µM |  | > 100 µM |  |  |  | > 100 µM |  | > 100 µM |  | > 100 µM |  | > 100 µM |  | > 100 µM |  | > 100 µM | > 100 µM | 
20 | O=[N+]([O-])c1ccc(Cl)c2c([N+](=O)[O-])cccc12 |  |  |  | > 10 µM |  |  |  | > 10 µM |  | > 10 µM |  |  |  |  |  | > 10 µM |  | > 10 µM | > 10 µM | 
